# In publication PMC2996101 (Journal of natural products, 2009):
# Columns and labels:
# [1] = target: T1, human 5-lipoxygenase (5-hLO) (Homo sapiens, UniProt P09917); assay: Lipoxygenase assay, 5-hLO; settings: ratio of IC50 values
# T1 sequence (P09917 1-674): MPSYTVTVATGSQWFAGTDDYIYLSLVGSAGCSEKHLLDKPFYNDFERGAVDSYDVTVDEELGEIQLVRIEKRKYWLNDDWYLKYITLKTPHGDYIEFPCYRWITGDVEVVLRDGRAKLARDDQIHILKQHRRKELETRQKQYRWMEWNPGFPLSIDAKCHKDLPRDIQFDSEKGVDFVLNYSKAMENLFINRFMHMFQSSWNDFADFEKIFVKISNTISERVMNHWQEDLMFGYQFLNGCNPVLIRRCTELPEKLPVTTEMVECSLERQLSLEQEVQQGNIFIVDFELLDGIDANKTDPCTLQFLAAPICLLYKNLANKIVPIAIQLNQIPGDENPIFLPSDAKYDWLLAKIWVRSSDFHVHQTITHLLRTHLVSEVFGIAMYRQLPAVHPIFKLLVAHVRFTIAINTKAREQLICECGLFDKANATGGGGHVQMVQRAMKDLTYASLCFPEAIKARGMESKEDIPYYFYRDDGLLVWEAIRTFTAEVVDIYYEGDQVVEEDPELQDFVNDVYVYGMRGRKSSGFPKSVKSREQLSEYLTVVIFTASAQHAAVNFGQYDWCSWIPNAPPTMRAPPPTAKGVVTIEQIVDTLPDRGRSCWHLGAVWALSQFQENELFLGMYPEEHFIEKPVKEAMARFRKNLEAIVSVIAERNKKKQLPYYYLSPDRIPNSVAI
# 12-hLO [2] = settings: read-out: previous IC50 12-hLO; previous work without Triton X100 ref 9; cited from earlier work
# [3] = test system: human lung adenocarcinoma cells over human leukemic lymphoid cells; assay: Soft agar disk diffusion assay; assay type: cell-based; settings: Table S4
# 15-hLO = settings: read-out: previous IC50 15-hLO; previous work without Triton X100 ref 9; cited from earlier work
# 12-hLO [4] = settings: data from literature ref 20; cited from earlier work
12-hLO/5-hLO selectivity ratio [1],15-hLO/5-hLO selectivity ratio [1],Structure (SMILES),IC50 (12-hLO [2]) [µM],selectivity against solid tumor cells [3],IC50 (15-hLO) [µM],12-hLO activity (12-hLO [4])
32,9,"CC1(C)CCC[C@]2(C)[C@H]3C=C4C=C(O)C(=O)C=C4O[C@@]3(C)CC[C@@H]12 [Compound 1, puupehenone]",8.3,modest selectivity,0.8,
~ 3,~ 3,"CC1(C)CCC[C@]2(C)[C@H]3C=C4C(=CC(=O)[C@@H]4O)O[C@@]3(C)CC[C@@H]12 [Compound 3, 20-hydroxyhaterumadienone]",,,,
4,,"CC1(C)CCC[C@]2(C)C3=CC4=CC(=O)C(=O)C=C4O[C@@]3(C)CC[C@@H]12 [Compound 5, puupehedione]",,,,
> 111,42,"CC1=C(CC/C(C)=C/CC/C(C)=C/Cc2cc(O)ccc2O)C(C)(C)CCC1 [Compound 9, jaspaquinol]",4.5,,0.3,
,,"C[C@@H](c1cc2ccccc2s1)N(O)C(N)=O [Compound 13, zileuton]",,,,"Active ^*, ^**"
